Patent US20240390308A1, “APPLICATION METHOD OF POTASSIUM ION CHANNEL BLOCKER IN PREPARATION OF DRUGS FOR TREATING LIVER FIBROSIS” (Affiliated Hospital of Zunyi Medical University, priority 2023, published 2024)

Columns and labels:
α-SMA = α-SMA expression in liver tissue detected by immunohistochemistry; format: in vivo; conditions: liver fibrosis mice induced by CCl4, treated with sotalol
Description: Experimental methods are as follows. The paraffin blocks prepared in the embodiment 1 are taken and performed immunohistochemistry according to the procedures after slicing into slices. The slices are soaked in 100%, 95%, 80%, and 75% ethanol for 5 minutes sequentially in that order, then rinsed them with the PBS solution, catalase is removed by using hydrogen peroxide, and antigens are repaired by sodium citrate repair solution. After cooling, the treated slices are rinsed with the PBS solution, sealed at room temperature for 30 minutes, then incubated overnight at 4° C. with primary antibodies, and incubated at room temperature with secondary antibodies for 1 hour on the next day. Then, the incubated slices are stained with diaminobenzidine (DAB), counterstained with hematoxylin, differentiated with hydrochloric acid alcohol, dehydrated, sealed, and finally observed and photographed under the microscope.

[1] = tested on: α-SMA, LC3, p62, N-cadherin, vimentin, ZO-1 in liver tissue; test: Expression of α-SMA, autophagy-related index and EMT markers in liver tissue by Western-blot; format: in vivo, mice; conditions: liver tissue induced by CCl4, after treatment with sotalol
Text: Experimental materials include mouse liver tissue, a tweezer, a scissor, 2 millimeters (mm) steel balls, a magnet, a cell lysis solution, a PBS solution, a bicinchoninic acid (BCA) protein quantitative kit, defatted milk powder, and primary antibodies and corresponding secondary antibodies related to α-SMA, autophagy and EMT. Experimental method are as follows. The liver tissue in the embodiment 1 is taken about the size of a grain of rice by using the tweezer and the scissor, added to labeled 1.5 mL Eppendorf (EP) tubes, two 2 mm steel balls and 200-250 microliter (μL) cell lysis solution are added into each of the EP tubes, after the parameters are set, and the EP tubes are placed in the grinder for full grinding. Then, the steel balls are sucked out by using the magnet, and after being applied to the ice for 30 minutes, the EP tubes are centrifuged at 12000 revolutions per minute (rpm) for 30 minutes at 4° C. A standard curve is made, 1 μL protein samples, 19 μL PBS solution and 200 μL (50:1) BCA working solution are added in each well of a 96-well plate, and two replicate wells are added per well. The 96-well plate is put in a 37°° C. drying oven for 30 minutes. The optical density (OD) value at 560 nanometers (nm) is measured by using an enzyme-linked immunosorbent assay (ELISA) on the machine to calculate the concentration of the protein. The protein is boiled in boiling water for 5 minutes before samples loading, and the samples are performed with gel electrophoresis, membrane transfer and blocking sequentially, then the treated samples are exposed after incubating with the primary antibodies and the secondary antibodies.

[2] = tested on: CCl4-induced liver fibrosis in mice; test: CCl4-induced liver fibrosis in mice, HE staining and Sirius-red staining of liver tissue; format: in vivo
Description: Experimental materials include 60 healthy male C57 mice (20-25g/mouse), gavage needles, 1 milliliter (mL) syringes, CCl4 solution, olive oil and sotalol solution. Experimental method is as follows. The CCl4 solution is dissolved in the olive oil solution (CCl4: olive oil=1:[…]), prepared and used immediately, concentration is 0.1milliliters per 20 grams (0.1 mL/20 g), intragastrically administered twice a week for a total of 8 weeks to the mice. The sotalol solution is mixed with physiological saline, prepared and used immediately, concentration is 1 millimole per liter (mM), 0.2 mL/20 g, and intraperitoneally injected once a day for a total of 6-8 weeks to the mice. The mice are randomly divided into four groups: a. a normal control group; b. a model group, mice are intragastrically administered the CCl4 for 8 weeks; c. a CCl4 and sotalol group, mice are treated with the CCl4 alone for 2 weeks, followed by concurrent administration of the sotalol and CCl4 for 6 weeks; d. a sotalol group, mice are intraperitoneally injected the sotalol for 8 weeks. The mice are sacrificed in sequence at the 2nd, 4th, 6th, and 8th weeks of modeling, one for each group, liver samples of the mice are taken out and placed in a -80 Celsius degree (° C.) refrigerator for quick-frozen storage, and other livers are fixed in 4% paraformaldehyde for 24 hours and then embedded in paraffins. […] Then, all mice are sacrificed, and eyeball blood of mice is taken to measure liver function indexes (alanine transaminase abbreviated as ALT, aspartate transaminase abbreviated as AST). In addition, the liver tissue is fixed with formaldehyde and embedded in paraffins for later use.

[3] = tested on: α-SMA, LC3, p62, ZO-1, N-cadherin, vimentin in HSC-T6 cells; test: Expression of α-SMA, autophagy-related index and EMT markers in HSCs by Western-blot; format: cell-based, rat; conditions: sotalol 400 μM, TGF-β1 10 ng/mL, 48 hours
Description: Experimental materials include HSC-T6 cells, a DMEM complete medium, cell culture dishes, a cell lysis solution, a PBS solution, a BCA protein quantitative kit, defatted milk powder, primary antibodies and corresponding secondary antibodies related to α-SMA, autophagy and EMT. Experimental method are as follows. The experiment is grouped into a normal control group, a TGF-β 1 group, a sotalol +TGF-β1 group, and a sotalol group, where the stimulation concentration of the TGF-β1 is 10 ng/mL and concentration of the sotalol is 400 μM. The HSC-T6 cells are cultured by using cell culture dishes, incubated, dosed, and added with TGF-β1according to the conditions described in the embodiment 4. After 48 hours, the incubated cells are rinsed by the precooled PBS solution for 3-4 times, and residual PBS liquid is absorbed with a filter paper, 50 μL radioimmune precipitation assay (RIPA) and 0.5 μL (100:1) phenylmethanesulfonyl fluoride (PMSF) with […] concentration are added in a 50 mL culture flask and placed on ice for 30 minutes. Then, the protein is scraped by a cell scraper from the culture flask and suctioned out into the EP tubes, and centrifuged at 12000 rpm for 30 minutes at 4° C. A standard curve is made, 1 μL protein samples, 19 μL PBS solution and 200 μL (50:1) BCA working solution are added in each well of the 96-well plate, and two replicate wells are added per well. The 96-well plate is put in a 37° C. drying oven for 30 minutes. The OD value at 560 nm is measured by using an enzyme-linked immunosorbent assay on the machine to calculate the concentration of the protein. The protein is boiled in boiling water for 5 minutes before samples loading, and the samples are performed with gel electrophoresis, membrane transfer and blocking sequentially, then the treated samples are exposed after incubating with the primary antibodies and the secondary antibodies.

HSC-T6 cells = test: Sotalol and TGF-β1 co-culture, proliferation of hepatic stellate cells detected by CCK-8; format: cell-based, rat; conditions: sotalol 200, 400, 800, 1000 μM added 3 hours before TGF-β1 10 ng/ml; 48 hours incubation
Description: Experimental materials include HSC-T6 cells (also referred to as immortalized hepatic rat stellate cell line), a Dulbecco's modified Eagle's medium (DMEM) complete medium, a 96-well plate, a counting chamber (also referred to as hemocytometer), CCK-8 working solution, and the like. Experimental method are as follows. The HSC-T6 cells are cultured in the DMEM culture medium containing 10% fetal bovine serum, 1% double antibodies (penicillin-streptomycin solution) and 1% nonessential amino acid (NEAA) at 37° C. and 5% CO2, and the cells are digested by using trypsin for passage cultivation after the cells are converged to 80% to 90%. Next, the cells are inoculated in the plate, specifically, a density of 7×10^6 cells per liter (cells/L) cell suspension is taken and added at 100 μL cell suspension per well to the 96-well culture plate, each group has 6 replicate wells. […] After incubation for 48 hours, 100 μL of “10% CCK-8 and 90% medium” mixed solution is added to each well and incubated for 1 hour to 4 hours at 37° C., the wavelength is set at 450 nm, and absorbance value is read and recorded at the corresponding wavelength by using a fully-automated enzyme labeling instrument. Effects of sotalol on cell proliferation are detected by CCK-8, and an optimal time of action and an optimal drug concentration are screened.

[4] = CCl4 and sotalol group: CCl4 alone 2 weeks, then sotalol (1 mM, 0.2 mL/20 g, i.p. once a day) plus CCl4 for 6 weeks, vs model group

In the case of `CC(C)NCC(O)c1ccc(NS(C)(=O)=O)cc1` (centres unmarked) [sotalol], the “expression of α-SMA in liver tissue (immunohistochemistry)” value (α-SMA) is reported as “down-regulate”, the “accumulation of ZO-1 in liver tissue (Western-blot)” value [1] is reported as “promoted” and the “accumulation of p62 in liver tissue (Western-blot)” value [1] is reported as “promoted”. For the same compound, the “expression of LC3 in liver tissue (Western-blot)” value [1] was “significantly reduced”, the “expression of N-cadherin in liver tissue (Western-blot)” value [1] was “inhibited” and the “expression of vimentin in liver tissue (Western-blot)” value [1] was “inhibited”. For the same compound, the “expression of α-SMA in liver tissue (Western-blot)” value [1] was “significantly reduced”, the “degree of damage of the liver tissue (HE staining)” value [2, 4] was “significantly reduced” and the “degree of fibrous tissue proliferation (HE staining)” value [2, 4] was “significantly reduced”. The “collagen fibers (Sirius-red staining), induction of liver fibrosis by sotalol alone” value ([2]; sotalol group: sotalol 1 mM, 0.2 mL/20 g, i.p. once a day for 8 weeks, no CCl4) was “no obvious collagen fibers are observed”, the “accumulation of P62 in HSCs (Western-blot)” value [3] was “promoted” and the “accumulation of ZO-1 in HSCs (Western-blot)” value [3] was “promoted”. The “expression of LC3 in HSCs (Western-blot)” value [3] was “significantly inhibited”, the “expression of N-cadherin in HSCs (Western-blot)” value [3] was “inhibited” and the “expression of vimentin in HSCs (Western-blot)” value [3] was “inhibited”. The “expression of α-SMA in HSCs (Western-blot)” value [3] was “significantly reduced” and the “TGF-β1-induced proliferation trend of HSC-T6 cells (CCK-8)” value (HSC-T6 cells) was “inhibited”.
